For assay [1], the target named is human CB2 receptor (Homo sapiens (Human), UniProt P34972). Nature of the assay: cAMP assay, CHO cells expressing human CB2 receptors. The note with it: functional cAMP assay, read-out: CB2 hcAMP EC50. In kind it is cell-based. The method, boiled down:
(§1)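 Compound exposure lasted 30 min at 30 °C in IBMX (1 mM)-containing Krebs Ringer bicarbonate buffer, applied to human CB1- or CB2-expressing CHO cells. Lysates were read by time-resolved FRET cAMP detection, converted via cAMP standard curve (10 μM–0.13 nM), and EC50 values calculated.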

Assay [2] addresses human CB1 receptor (Homo sapiens (Human), UniProt P21554). Nature of the assay: cAMP assay, CHO cells expressing human CB1 receptors. The note with it: functional cAMP assay, read-out: CB1 hcAMP EC50. In kind it is cell-based. The method, boiled down: as §1

pEC50: −log10 of the molar value. Bounds are passed on as bounds.

This is an account of results in US9593123B2, “Triazolo[4,5-D]pyrimidine derivatives” (Hoffmann-La Roche Inc., priority 2013, dated 2017).

Sequence of human CB2 receptor (P34972 whole entry): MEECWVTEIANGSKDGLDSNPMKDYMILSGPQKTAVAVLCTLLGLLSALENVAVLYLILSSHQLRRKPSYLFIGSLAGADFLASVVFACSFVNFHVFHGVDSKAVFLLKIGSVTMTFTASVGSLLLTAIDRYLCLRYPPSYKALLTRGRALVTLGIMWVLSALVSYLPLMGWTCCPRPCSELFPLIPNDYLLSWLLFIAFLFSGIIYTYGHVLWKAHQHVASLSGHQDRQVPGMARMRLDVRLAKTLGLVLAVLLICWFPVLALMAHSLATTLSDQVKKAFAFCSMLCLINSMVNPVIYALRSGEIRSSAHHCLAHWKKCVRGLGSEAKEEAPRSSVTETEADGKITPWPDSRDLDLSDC
Sequence of human CB1 receptor (P21554 whole entry): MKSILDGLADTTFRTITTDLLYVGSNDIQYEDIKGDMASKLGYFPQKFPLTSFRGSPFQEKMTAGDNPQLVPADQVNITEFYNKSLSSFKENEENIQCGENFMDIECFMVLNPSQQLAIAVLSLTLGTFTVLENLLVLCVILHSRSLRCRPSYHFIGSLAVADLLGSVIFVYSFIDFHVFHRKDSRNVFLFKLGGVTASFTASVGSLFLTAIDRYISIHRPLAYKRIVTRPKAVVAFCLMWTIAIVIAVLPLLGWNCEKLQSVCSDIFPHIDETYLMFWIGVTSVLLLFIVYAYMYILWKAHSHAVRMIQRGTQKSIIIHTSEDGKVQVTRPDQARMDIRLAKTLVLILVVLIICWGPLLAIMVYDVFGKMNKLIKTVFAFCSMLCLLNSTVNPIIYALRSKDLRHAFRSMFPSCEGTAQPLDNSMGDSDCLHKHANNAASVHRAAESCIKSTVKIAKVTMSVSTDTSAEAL

As for `FC1(F)CCN(c2nc(NC3COC3)nc3c2nnn3Cc2ccccc2Cl)C1` [Example 17, 3-[(2-Chlorophenyl)methyl]-7-(3,3-difluoropyrrolidin-1-yl)-N-(oxetan-3-yl)triazolo [4,5-d]pyrimidin-5-amine], the results for the pEC50 in assay [1] and in assay [2] were 7.58 and < 5.00, respectively.

In the case of `CC(C)(C)Sc1nc(N2CCC(F)(F)C2)c2nnn(Cc3ccccc3Cl)c2n1` [Example 85, 5-tert-Butylsulfanyl-3-[(2-chlorophenyl)methyl]-7-(3,3-difluoropyrrolidin-1-yl)triazolo[4,5-d]pyrimidine], the results for the pEC50 in assay [1] and in assay [2] were 9.05 and 6.97, respectively.

Regarding `Cn1nnnc1Cn1nnc2c(N3CCC(F)(F)C3)nc(NC(C)(C)C)nc21` [Example 25, N-tert-Butyl-7-(3,3-difluoropyrrolidin-1-yl)-3-[(1-methyltetrazol-5-yl)methyl]triazolo [4,5-d]pyrimidin-5-amine], the values for the negative-log EC50 (pEC50) in assay [1] and in assay [2] were 8.12 and < 5.00, respectively.

Turning to `CC(Oc1nc(N2CCC(F)(F)C2)c2nnn(Cc3ccccc3Cl)c2n1)C(F)(F)F` (stereo not drawn) [Example 41, 3-[(2-Chlorophenyl)methyl]-7-(3,3-difluoropyrrolidin-1-yl)-5-(1,1,1-trifluoropropan-2-yloxy)triazolo[4,5-d]pyrimidine], the values for the negative-log EC50 (pEC50) in assay [1] and in assay [2] were 8.07 and < 5.00, respectively.

On to `Cc1noc(Cn2nnc3c(N4CCC(F)(F)C4)nc(O[C@@H](C)C(F)(F)F)nc32)n1` [Example 72, 5-[[7-(3,3-Difluoropyrrolidin-1-yl)-5-[(2S)-1,1,1-trifluoropropan-2-yl]oxytriazolo[4,5-d]pyrimidin-3-yl]methyl]-3-methyl-1,2,4-oxadiazole], for which the pEC50 is 7.17 in assay [1] and < 5.00 in assay [2].

Turning to `CC(C)(O)COc1nc(N2CCC(F)(F)C2)c2nnn(Cc3ccccc3Cl)c2n1` [Example 58, 1-[3-[(2-Chlorophenyl)methyl]-7-(3,3-difluoropyrrolidin-1-yl)triazolo[4,5-d]pyrimidin-5-yl]oxy-2-methylpropan-2-ol], the results for the negative logarithm of the EC50 (pEC50) in assay [1] and in assay [2] were 7.80 and < 5.00, respectively.

In the case of `C[C@H](Oc1nc(N2CCC(F)(F)C2)c2nnn(Cc3nnnn3C)c2n1)C(F)(F)F` [Example 73, 7-(3,3-Difluoropyrrolidin-1-yl)-3-[(1-methyltetrazol-5-yl)methyl]-5-[(2S)-1,1,1-trifluoropropan-2-yl]oxytriazolo[4,5-d]pyrimidine], the pEC50 is 7.37 in assay [1] and < 5.00 in assay [2].

Turning to `FCCOc1nc(N2CCC(F)(F)C2)c2nnn(Cc3ccccc3Cl)c2n1` [Example 46, 3-[(2-Chlorophenyl)methyl]-7-(3,3-difluoropyrrolidin-1-yl)-5-(2-fluoroethoxy) triazolo[4,5-d]pyrimidine], the negative-log EC50 (pEC50) in assay [1] is 8.28; in assay [2] it was < 5.00.

Take `CC(C)(C)COc1nc(N2CCC(F)(F)C2)c2nnn(Cc3ccccc3Cl)c2n1` [Example 52, 3-[(2-Chlorophenyl)methyl]-7-(3,3-difluoropyrrolidin-1-yl)-5-(2,2-dimethylpropoxy) triazolo[4,5-d]pyrimidine]: the negative-log EC50 (pEC50) in assay [1] was 9.10; in assay [2], < 5.00.

Regarding `C[C@]1(O)CCN(c2nc(N3CCOCC3)nc3c2nnn3Cc2ccccc2C(F)(F)F)C1` [Example 33, (3S)-3-Methyl-1-[5-morpholin-4-yl-3-[[2-(trifluoromethyl)phenyl]methyl]triazolo[4,5-d]pyrimidin-7-yl]pyrrolidin-3-ol], the pEC50 in assay [1] is 8.14; in assay [2] it was < 5.00.

Consider `O=S(=O)(Cc1ccccc1)c1nc(N2CCC(F)(F)C2)c2nnn(Cc3ccccc3Cl)c2n1` [Example 87, 5-Benzylsulfonyl-3-[(2-chlorophenyl)methyl]-7-(3,3-difluoropyrrolidin-1-yl)triazolo [4,5-d]pyrimidine], for which the pEC50 in assay [1] is 7.08; in assay [2] it was < 5.00.

For `CC(C)(C)Nc1nc(N2CCC(F)(F)C2)c2nnn(Cc3ccccc3S(C)(=O)=O)c2n1` [Example 23, N-tert-Butyl-7-(3,3-difluoropyrrolidin-1-yl)-3-[(2-methylsulfonylphenyl)methyl]triazolo[4,5-d]pyrimidin-5-amine], the negative logarithm of the EC50 (pEC50) in assay [1] is 8.96; in assay [2] it was 6.31.

With `C[C@@]1(O)CCN(c2nc(N3CCOCC3)nc3c2nnn3Cc2ccccc2Cl)C1` [Example 36, (3R)-1-[3-[(2-Chlorophenyl)methyl]-5-morpholin-4-yltriazolo[4,5-d]pyrimidin-7-yl]-3-methylpyrrolidin-3-ol], the negative logarithm of the EC50 (pEC50) in assay [1] was 6.66; in assay [2] it was < 5.00.

`CC(F)(F)COc1nc(N2CCC(F)(F)C2)c2nnn(Cc3ccccc3Cl)c2n1` [Example 53, 3-[(2-Chlorophenyl)methyl]-5-(2,2-difluoropropoxy)-7-(3,3-difluoropyrrolidin-1-yl)triazolo[4,5-d]pyrimidine]: the pEC50 in assay [1] was 8.26; in assay [2] it was < 5.00.

`CC(C)COc1nc(N2CCC(F)(F)C2)c2nnn(Cc3ccccc3Cl)c2n1` [Example 54, 3-[(2-Chlorophenyl)methyl]-7-(3,3-difluoropyrrolidin-1-yl)-5-(2-methylpropoxy) triazolo[4,5-d]pyrimidine]: the pEC50 in assay [1] is 8.92; in assay [2], < 5.00.

Consider `C[C@H](Oc1nc(N2CCC(F)(F)C2)c2nnn(Cc3ccccc3S(C)(=O)=O)c2n1)C(F)(F)F` [Example 69, 7-(3,3-Difluoropyrrolidin-1-yl)-3-[(2-methylsulfonylphenyl)methyl]-5-[(2S)-1,1,1-trifluoropropan-2-yl]oxytriazolo[4,5-d]pyrimidine], for which the pEC50 was 8.49 in assay [1] and < 5.00 in assay [2].

For the molecule `CC(C)Oc1nc(N2CC[C@H](O)C2)c2nnn(Cc3ccccc3S(C)(=O)=O)c2n1` [Example 63, (3S)-1-[3-[(2-Methylsulfonylphenyl)methyl]-5-propan-2-yloxytriazolo[4,5-d]pyrimidin-7-yl]pyrrolidin-3-ol], the negative-log EC50 (pEC50) is 6.72 in assay [1] and < 5.00 in assay [2].

For `FC1(F)CCN(c2nc(C3CCC3)nc3c2nnn3Cc2ccccc2Cl)C1` [Example 1, 3-[(2-Chlorophenyl)methyl]-5-cyclobutyl-7-(3,3-difluoropyrrolidin-1-yl)triazolo[4,5-d]pyrimidine], the negative logarithm of the EC50 (pEC50) in assay [1] was 9.00; in assay [2], < 5.00.

As for `CC(=O)N[C@H]1CCN(c2nc(OCC(C)(C)C)nc3c2nnn3Cc2nonc2C)C1` [Example 79, N-[(3S)-1-[5-(2,2-Dimethylpropoxy)-3-[(4-methyl-1,2,5-oxadiazol-3-yl)methyl]triazolo [4,5-d]pyrimidin-7-yl]pyrrolidin-3-yl]acetamide], the pEC50 in assay [1] was 7.14; in assay [2], < 5.00.

For `CC(C)CS(=O)(=O)c1nc(N2CCC(F)(F)C2)c2nnn(Cc3ccccc3Cl)c2n1` [Example 94, 3-[(2-Chlorophenyl)methyl]-7-(3,3-difluoropyrrolidin-1-yl)-5-(2-methylpropylsulfonyl)triazolo[4,5-d]pyrimidine], the pEC50 in assay [1] was 8.55; in assay [2] it was < 5.00.

In the case of `CN(c1nc(N2CCC(F)(F)C2)c2nnn(Cc3ccccc3Cl)c2n1)C1CCC1` [Example 18, 3-[(2-Chlorophenyl)methyl]-N-cyclobutyl-7-(3,3-difluoropyrrolidin-1-yl)-N-methyltriazolo[4,5-d]pyrimidin-5-amine], the pEC50 in assay [1] was 8.09; in assay [2], 6.01.
